Measurements: ChEMBL document CHEMBL1201862, “PubChem BioAssay data set” (2004)
Calls of active or inactive are those of the source.

Experiments:
[1] = target: T1, Protein Tat (Human immunodeficiency virus type 1 group M subtype B (isolate HXB2)(HIV-1), UniProt P04608); assay type: functional;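 further: tat binding to TAR RNA read out by fluorescence polarization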
T1 sequence (P04608 whole entry): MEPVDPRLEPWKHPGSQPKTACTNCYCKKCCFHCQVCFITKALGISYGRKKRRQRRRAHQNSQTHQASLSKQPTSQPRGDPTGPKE

[2] = target: Nonstructural protein 1 (Influenza A virus, UniProt Q194T2); assay type: functional, Influenza A virus (A/California/07/2009(H1N1))
[3] = growth inhibition of yeast DHODH-expressing 3D7 parasites – SYBR Green, dry powder samples, dose response (AID 1159570); assay type: functional, cell-based;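 further: parasite growth measured after 72 hours of compound exposure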
[4] = P. falciparum Dd2 growth inhibitors, dose response, SYBR Green, cherry-picked samples (AID 1159567); assay type: functional, cell-based
[5] = Dd2 malaria parasite growth inhibition potency – SYBR Green, dry powder samples, dose response (AID 1159566); assay type: functional, cell-based;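 further: potency for growth inhibition with lower SYBR green DNA signal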
[6] = growth inhibition of PfATP4-mutant resistant parasites – NITD609-resistant line, SYBR Green, dry powder, dose response (AID 1159571); assay type: functional, cell-based;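 further: parasites synchronized at ring stage by sorbitol before testing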
[7] = Luminescence-based cell-based high throughput dose response assay to identify activators of the DAF-12 from the parasite S. stercoralis (ssDAF-12).; assay type: functional
[8] = target: T2, Oxysterols receptor LXR-beta (Homo sapiens, UniProt P55055); test: LXR agonists, Gal4 luciferase reporter, dose response, counter-screen for ssDAF-12 agonist project, cell-based, luminescence, HEK293, S. stercoralis campaign (AID 720737); assay type: functional; settings: read-out: IC50 (the source's name)
T2 sequence (P55055 whole entry): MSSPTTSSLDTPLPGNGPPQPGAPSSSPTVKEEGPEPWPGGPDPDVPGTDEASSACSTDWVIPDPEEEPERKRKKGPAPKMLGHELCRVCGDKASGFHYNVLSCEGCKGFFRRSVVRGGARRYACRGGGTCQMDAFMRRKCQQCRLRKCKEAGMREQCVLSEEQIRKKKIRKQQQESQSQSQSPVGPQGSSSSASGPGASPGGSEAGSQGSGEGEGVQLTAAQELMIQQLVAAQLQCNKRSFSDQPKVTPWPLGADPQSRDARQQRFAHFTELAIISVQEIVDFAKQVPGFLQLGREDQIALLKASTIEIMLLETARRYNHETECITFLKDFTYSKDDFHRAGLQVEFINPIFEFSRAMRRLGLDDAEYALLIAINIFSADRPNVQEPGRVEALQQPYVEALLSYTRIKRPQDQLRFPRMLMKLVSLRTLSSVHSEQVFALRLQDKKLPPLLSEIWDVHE

[9] = Trypanosoma cruzi growth suppression in host cells – NIH3T3 host cells, beta-gal luminescence, confirmation (AID 2044); assay type: functional, cell-based;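 further: intracellular parasites grown in NIH/3T3 mouse fibroblasts as host cells; luminescent beta-galactosidase reporter signal from transgenic T. cruzi replicating inside host cells; inhibitors lower the luminescence signal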
[10] = NIH3T3 cell viability loss – ATP luminescence, mouse fibroblasts, counter-screen, dose response (AID 2010); assay type: functional, cell-based;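 further: cells exposed to compound for about 90 hours before reading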
[11] = cells
[12] = target: Prothrombin (Homo sapiens, UniProt P00734); test: Thrombin 1536 HTS Dose Response Confirmation. [Related pubchem assays: 1046 (Thrombin 1536 HTS; hits were confirmed in this assay)]; assay type: functional
[13] = target: Kallikrein-7 (Homo sapiens, UniProt P49862); test: Fluorescence Intensity-based biochemical primary high throughput dose response assay to identify activators of kallikrein-7 (K7) zymogen.
[14] = target: Paired box protein Pax-8 (Homo sapiens, UniProt Q06710); test: PAX8 transcriptional activity inhibition in RMG-I – RMG-I cells, luciferase, cherry-pick, dose response (AID 687027); assay type: functional, cell-based;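 further: luciferase reporter driven by Pax8 target thyroperoxidase promoter measured by SteadyGlo luminescence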
[15] = general cell-killing toxicity readout – plate reader, dry powder samples, cytotoxicity control for PAX8 inhibitor project, dose response (AID 743021); assay type: functional, cell-based
[16] = viability of PTEN-deleted HCT116 cells – cell-based, HCT116 PTEN knockout, dose response (AID 1047); assay type: functional;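 further: HCT116 colon tumor cells with PTEN knocked out; cells exposed to compound for 60 hours before readout; potency for loss of cell viability measured by luminescence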
[17] = viability of HCT116 lacking mutant beta-catenin – cell-based, human colon tumor, dose response (AID 1045); assay type: functional;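 further: HCT116 colon tumor cells with beta catenin knocked out; cells exposed to compound for 60 hours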
[18] = target: T3, Mannose-6-phosphate isomerase (Homo sapiens, UniProt P34949); test: MPI inhibition at elevated mannose 6-phosphate – biochemical, fluorescence intensity, high mannose 6-phosphate, primary screen (AID 1220)
T3 sequence (P34949 whole entry): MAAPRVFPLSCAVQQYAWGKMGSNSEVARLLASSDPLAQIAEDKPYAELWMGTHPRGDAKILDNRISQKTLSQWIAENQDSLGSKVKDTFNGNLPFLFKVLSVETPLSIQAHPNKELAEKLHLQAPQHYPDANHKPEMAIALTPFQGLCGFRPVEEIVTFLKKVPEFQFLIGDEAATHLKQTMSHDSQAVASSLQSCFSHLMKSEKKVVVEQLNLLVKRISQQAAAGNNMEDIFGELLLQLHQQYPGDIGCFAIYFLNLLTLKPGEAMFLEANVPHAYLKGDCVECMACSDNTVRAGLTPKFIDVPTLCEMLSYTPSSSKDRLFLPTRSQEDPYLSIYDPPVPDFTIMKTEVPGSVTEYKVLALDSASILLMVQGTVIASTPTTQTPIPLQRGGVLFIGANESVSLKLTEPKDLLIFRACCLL

[19] = Luminescence Cell-Based Dose Retest to Confirm Inhibitors of Cancer Stem Cells. [Related pubchem assays (depositor defined):AID2717, AID2721]; assay type: functional; settings: Homo sapiens
[20] = target: T4, Heat shock factor protein 1 (Mus musculus, UniProt P38532); test: enhancement of HSF1-driven luciferase signal – cell-based, NIH3T3, luminescence, dose retest, confirmation (AID 435004); assay type: functional;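 further: stress induced by proteasome inhibitor MG132 added 30 min after compound; luciferase reporter driven by HSF1 response element in NIH3T3 cells; actives raise luminescence as potentiators of the MG132 stress response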
T4 sequence (P38532 whole entry): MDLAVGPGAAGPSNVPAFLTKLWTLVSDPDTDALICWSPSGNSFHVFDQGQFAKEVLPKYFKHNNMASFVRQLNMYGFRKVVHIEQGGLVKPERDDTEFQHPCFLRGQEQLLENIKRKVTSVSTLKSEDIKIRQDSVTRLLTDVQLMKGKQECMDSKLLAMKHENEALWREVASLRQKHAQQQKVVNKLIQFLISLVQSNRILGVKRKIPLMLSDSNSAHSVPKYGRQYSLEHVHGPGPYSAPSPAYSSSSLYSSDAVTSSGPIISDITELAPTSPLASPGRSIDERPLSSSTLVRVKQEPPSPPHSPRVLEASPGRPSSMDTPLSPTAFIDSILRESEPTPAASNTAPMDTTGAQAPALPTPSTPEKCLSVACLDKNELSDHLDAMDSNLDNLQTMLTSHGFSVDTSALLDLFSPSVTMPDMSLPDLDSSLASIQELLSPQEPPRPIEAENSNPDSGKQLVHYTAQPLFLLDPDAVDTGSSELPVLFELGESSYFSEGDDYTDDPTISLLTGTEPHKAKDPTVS

[21] = reduction of Shn3 3'UTR-driven luciferase in osteoblasts – cell-based, Clone20 osteoblasts, firefly luciferase, cherry-picked, dose response (AID 624132); assay type: functional;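 further: firefly luciferase luminescence from reporter carrying the Shn3 3'UTR in osteoblasts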
[22] = loss of viability in HepG2 cells – cell-based, CellTiter-Glo, cherry-picked, cytotoxicity control for Shn3 inhibitor project, dose response (AID 624134); assay type: functional
[23] = non-specific 3'UTR reporter inhibition in Clone20-Shn3RL – cell-based, Renilla luciferase, cherry-picked, counter-screen for Shn3 inhibitor project, dose response (AID 624133); assay type: functional
[24] = target: T5, Fatty acid synthase (Homo sapiens, UniProt P49327); test: inhibition of human FAS-TE enzyme activity – biochemical, endpoint fluorescence intensity, uHTS hits, dose response (AID 624327); assay type: functional;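 further: fluorescence from hydrolysis of an O-methyl fluorescein acyl ester substrate by the enzyme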
[25] = target: T5, Fatty acid synthase; test: inhibition of human FAS-TE enzyme activity – biochemical, kinetic fluorescence intensity, dose response (AID 624326); assay type: functional;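 further: rate of fluorescence rise from hydrolysis of a fluorogenic O-methyl fluorescein ester substrate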
[26] = viability loss in Vero cells – cytotoxicity control for Vif-APOBEC3G degradation inhibitor project, dose response (AID 1117358); assay type: functional; settings: Vero
[27] = test system: BJ; test: BJ-TERT fibroblast viability loss – cell-based, RAS-independent, luminescence, dose response (AID 1933); assay type: functional; settings: Homo sapiens
[28] = test system: BJ; test: cells; assay type: functional, cell-based; settings: Homo sapiens
[29] = test system: BJ; test: BJ-TERT-LT-ST fibroblast viability loss – cell-based, RAS-independent, luminescence, dose response (AID 1935); assay type: functional; settings: Homo sapiens;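 further: BJ fibroblasts immortalized with TERT plus LT and ST oncogenes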
[30] = DRD fibroblast viability loss – cell-based, non-viral oncogenic, luminescence, dose response (AID 1934); assay type: functional; settings: Homo sapiens

Sequence of Kallikrein-7 (P49862 whole entry): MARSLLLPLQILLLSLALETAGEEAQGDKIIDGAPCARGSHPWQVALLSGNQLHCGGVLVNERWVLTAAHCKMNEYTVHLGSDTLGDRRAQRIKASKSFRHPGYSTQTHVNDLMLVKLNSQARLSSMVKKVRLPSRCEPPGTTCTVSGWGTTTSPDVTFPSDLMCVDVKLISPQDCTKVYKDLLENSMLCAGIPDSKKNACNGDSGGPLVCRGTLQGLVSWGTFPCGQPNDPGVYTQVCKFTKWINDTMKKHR
T5 sequence (P49327 whole entry): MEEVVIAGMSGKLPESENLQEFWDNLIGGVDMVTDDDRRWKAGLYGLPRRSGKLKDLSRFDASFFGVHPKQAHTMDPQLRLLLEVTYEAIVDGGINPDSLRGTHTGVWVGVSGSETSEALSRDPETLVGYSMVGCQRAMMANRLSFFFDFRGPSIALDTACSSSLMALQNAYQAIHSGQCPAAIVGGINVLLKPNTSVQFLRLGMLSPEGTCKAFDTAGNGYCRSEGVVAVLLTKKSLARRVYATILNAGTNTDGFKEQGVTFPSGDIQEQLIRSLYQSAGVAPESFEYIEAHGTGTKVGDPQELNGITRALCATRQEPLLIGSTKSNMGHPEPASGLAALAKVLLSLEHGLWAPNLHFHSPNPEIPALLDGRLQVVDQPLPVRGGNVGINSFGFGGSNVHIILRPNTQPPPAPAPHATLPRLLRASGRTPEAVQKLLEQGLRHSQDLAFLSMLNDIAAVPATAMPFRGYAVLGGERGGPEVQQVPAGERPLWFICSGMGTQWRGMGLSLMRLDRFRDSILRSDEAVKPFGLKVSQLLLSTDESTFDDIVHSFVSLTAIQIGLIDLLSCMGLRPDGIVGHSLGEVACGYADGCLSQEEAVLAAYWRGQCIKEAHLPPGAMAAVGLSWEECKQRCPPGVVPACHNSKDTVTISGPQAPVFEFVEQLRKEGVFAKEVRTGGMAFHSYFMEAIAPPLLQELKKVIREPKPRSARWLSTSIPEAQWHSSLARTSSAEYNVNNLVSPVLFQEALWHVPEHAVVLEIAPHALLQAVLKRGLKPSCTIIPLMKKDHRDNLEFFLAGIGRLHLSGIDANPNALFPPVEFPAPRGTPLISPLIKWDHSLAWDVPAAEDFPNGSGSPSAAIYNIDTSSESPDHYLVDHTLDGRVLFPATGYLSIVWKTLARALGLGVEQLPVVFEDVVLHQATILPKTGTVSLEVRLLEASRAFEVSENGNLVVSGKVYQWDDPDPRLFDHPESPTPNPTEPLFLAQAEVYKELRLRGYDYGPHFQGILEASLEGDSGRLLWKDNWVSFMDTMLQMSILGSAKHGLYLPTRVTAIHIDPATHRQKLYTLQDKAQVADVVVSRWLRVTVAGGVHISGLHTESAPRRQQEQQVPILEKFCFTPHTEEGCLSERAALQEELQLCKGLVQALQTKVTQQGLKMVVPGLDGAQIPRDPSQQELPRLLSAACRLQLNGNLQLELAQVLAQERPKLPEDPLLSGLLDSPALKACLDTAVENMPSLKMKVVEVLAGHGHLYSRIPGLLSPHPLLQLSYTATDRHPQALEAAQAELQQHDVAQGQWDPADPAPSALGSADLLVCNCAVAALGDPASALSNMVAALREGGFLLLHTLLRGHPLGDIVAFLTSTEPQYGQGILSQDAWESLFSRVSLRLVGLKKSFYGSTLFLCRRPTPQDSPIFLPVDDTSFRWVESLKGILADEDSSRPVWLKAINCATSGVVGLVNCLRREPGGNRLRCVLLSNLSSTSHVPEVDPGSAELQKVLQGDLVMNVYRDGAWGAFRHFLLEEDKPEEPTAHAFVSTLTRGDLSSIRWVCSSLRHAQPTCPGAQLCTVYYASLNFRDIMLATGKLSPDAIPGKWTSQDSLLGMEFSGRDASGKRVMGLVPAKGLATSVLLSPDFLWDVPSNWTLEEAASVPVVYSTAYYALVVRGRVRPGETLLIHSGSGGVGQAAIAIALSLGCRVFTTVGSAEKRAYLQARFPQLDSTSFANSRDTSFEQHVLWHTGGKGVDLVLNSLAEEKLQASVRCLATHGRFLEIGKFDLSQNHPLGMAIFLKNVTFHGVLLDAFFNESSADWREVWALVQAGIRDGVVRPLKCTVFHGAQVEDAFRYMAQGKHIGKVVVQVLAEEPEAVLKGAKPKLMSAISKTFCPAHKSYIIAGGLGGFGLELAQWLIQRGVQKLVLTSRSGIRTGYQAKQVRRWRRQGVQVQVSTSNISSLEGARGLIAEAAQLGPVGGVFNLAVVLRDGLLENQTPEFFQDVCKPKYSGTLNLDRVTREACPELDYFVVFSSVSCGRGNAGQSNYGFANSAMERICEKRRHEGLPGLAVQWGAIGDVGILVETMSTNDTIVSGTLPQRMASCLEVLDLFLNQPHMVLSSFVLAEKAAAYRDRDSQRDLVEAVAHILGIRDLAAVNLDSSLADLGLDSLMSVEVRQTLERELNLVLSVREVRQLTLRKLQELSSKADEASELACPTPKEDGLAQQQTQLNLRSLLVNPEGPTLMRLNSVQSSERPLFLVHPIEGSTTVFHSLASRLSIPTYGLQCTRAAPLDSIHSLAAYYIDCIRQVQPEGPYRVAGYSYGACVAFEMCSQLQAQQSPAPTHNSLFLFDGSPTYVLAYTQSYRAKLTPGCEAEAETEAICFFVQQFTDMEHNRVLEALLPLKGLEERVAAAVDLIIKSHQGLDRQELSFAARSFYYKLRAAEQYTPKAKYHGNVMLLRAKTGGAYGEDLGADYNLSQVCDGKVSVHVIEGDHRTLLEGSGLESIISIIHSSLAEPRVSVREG
Sequence of Nonstructural protein 1 (Q194T2 whole entry): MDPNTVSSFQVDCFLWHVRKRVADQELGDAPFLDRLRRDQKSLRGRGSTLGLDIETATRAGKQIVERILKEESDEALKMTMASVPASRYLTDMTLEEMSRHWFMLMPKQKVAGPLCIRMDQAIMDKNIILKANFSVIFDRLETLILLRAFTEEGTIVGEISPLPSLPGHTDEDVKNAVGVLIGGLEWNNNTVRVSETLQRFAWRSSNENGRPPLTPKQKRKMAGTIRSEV
Sequence of Paired box protein Pax-8 (Q06710 whole entry): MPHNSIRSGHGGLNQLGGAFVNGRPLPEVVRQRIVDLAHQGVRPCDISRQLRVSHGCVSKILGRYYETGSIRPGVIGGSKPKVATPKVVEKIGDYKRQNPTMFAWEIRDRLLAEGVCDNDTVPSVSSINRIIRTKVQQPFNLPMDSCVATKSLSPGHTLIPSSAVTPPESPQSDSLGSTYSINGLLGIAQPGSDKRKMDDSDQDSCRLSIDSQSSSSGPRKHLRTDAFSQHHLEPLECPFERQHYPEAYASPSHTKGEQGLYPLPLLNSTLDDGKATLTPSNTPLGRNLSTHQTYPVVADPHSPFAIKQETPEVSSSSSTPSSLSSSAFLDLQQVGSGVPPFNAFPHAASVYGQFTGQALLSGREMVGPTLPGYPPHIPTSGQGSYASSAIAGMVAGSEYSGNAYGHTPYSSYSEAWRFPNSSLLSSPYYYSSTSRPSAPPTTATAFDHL

## CC(C)CN(C(=O)CN1CCN(c2ccc(O)cc2)CC1)c1c(N)n(CC(C)C)c(=O)[nH]c1=O
[1]
  IC50: > 100 µM (active)

## O=C1CC(Nc2ccc(N3CCOCC3)cc2)C(=O)N1c1cccc(C(F)(F)F)c1 (configuration not stated)
[2]
  IC50: > 100 µM (active)
[1]
  IC50: 29.5 µM (inconclusive)

## COc1ccc(C#Cc2ccc3c(c2)[C@H]2[C@H](CCN2C(=O)C2CCCC2)[C@@H](CO)N3)cc1
[3]
  AC50: 1.99 µM (active)
[4]
  AC50: 2.04 µM (active)
[5]
  AC50: 1.67 µM (active)
[6]
  AC50: 2.2 µM (active)

## CCCCCCC1(C)N=C(S)N(c2ccccc2)N1 (configuration not stated)
[7]
  IC50: > 67.6 µM (inactive)
[8]
  EC50: > 67.6 µM (inactive)

## O=c1cc(CN2CCN(Cc3ccccc3)CC2)c2ccc(O)cc2o1
[9]
  EC50: < 0.1 µM (active)
[10]
  EC50: > 60 µM (not active)
[11]
  EC50: 0.038 µM (active)

## CN1CCc2c(sc3c2c(=O)n(-c2ccccc2)c2nnc(SCc4ccccc4)n32)C1
[9]
  EC50: < 0.1 µM (active)
[10]
  EC50: > 60 µM (not active)
[11]
  EC50: 0.015 µM (active)

## CCC(=O)Nc1cccc(C(=O)OCc2cccc([N+](=O)[O-])c2)c1
[12]
  IC50: > 50 µM (not active)

## COC(=O)c1cc(-c2ccc(OC)cc2)nc2nc(SC)[nH]c(=O)c12
[13]
  EC50: 48 µM (inactive)

## C[C@@H]1CN([C@H](C)CO)C(=O)c2cc(NS(=O)(=O)c3ccc(Cl)cc3)ccc2O[C@@H](C)CCCCO[C@@H]1CN(C)Cc1ccccc1
[14]
  AC50: 4.7 µM (active)
[15]
  AC50: 43 µM (active)

## CC1CC(C)CN(C(=O)c2cc3c(=O)n4ccccc4nc3s2)C1 (configuration not stated)
[13]
  EC50: > 69.5 µM (inactive)

## O=[N+]([O-])c1c(NCCCO)cc(Sc2ccc(Cl)cc2)c2nonc12
[16]
  EC50: 13.5 µM (active)
[17]
  EC50: 9.46 µM (active)
[18]
  IC50: > 50 µM (not active)
[19]
  AC50: 4.49 µM (active)
[20]
  EC50: 4.81 µM (active)
[21]
  AC50: 5.63 µM (active)
[22]
  AC50: 25.4 µM (active)
[23]
  AC50: 12.7 µM (active)
[24]
  IC50: 11.5 µM (active)
[25]
  IC50: 6.69 µM (active)

## O=C(O)CCc1nn2c3ccccc3nc2n(CCN2CCCCC2)c1=O
[13]
  EC50: 34.8 µM (inactive)

## CCc1cc2c(N3CCCCC3)ncnc2s1
[26]
  CC50: > 40 µM (active)

## O=C(/C=C/c1cccs1)Nc1ccc(Br)cn1
[27]
  EC50: 0.417 µM (inconclusive)
[28]
  EC50: 25.5 µM (inconclusive)
[29]
  EC50: 10.2 µM (inconclusive)
[30]
  EC50: 0.373 µM (inconclusive)
[26]
  CC50: > 40 µM (active)
